Test results published in ChEMBL document CHEMBL4382288, “Synthesis of 12-O-Mono- and Diglycosyl-oxystearates, a New Class of Agonists for the C-type Lectin Receptor Mincle” (ACS Med Chem Lett, 2019).
Active and inactive are the calls of the source. The rule behind the calls is not given here.

What follows are molecules tested against T1, C-type lectin domain family 4 member E (Homo sapiens) (UniProt Q9ULY5) (assay: Agonist activity at human mincle coupled with FcRgamma expressed in 2B4-NFAT-GFP reporter cells at 3 nmol/well after 16 hrs by flow cytometric analysis).
T1 sequence (whole entry): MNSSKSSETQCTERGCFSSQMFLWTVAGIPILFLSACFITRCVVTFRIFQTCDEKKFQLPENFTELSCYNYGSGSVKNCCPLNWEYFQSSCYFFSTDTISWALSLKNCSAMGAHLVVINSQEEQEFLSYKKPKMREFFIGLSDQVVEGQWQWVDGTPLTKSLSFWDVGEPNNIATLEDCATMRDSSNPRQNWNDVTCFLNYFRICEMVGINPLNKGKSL
Type: cell-based
`CCCCCCC(CCCCCCCCCCC(=O)OC)O[C@@H]1O[C@H](CO[C@H]2O[C@H](CO)[C@@H](O)[C@H](O)[C@H]2O)[C@@H](O)[C@H](O)[C@H]1O` (some centres undefined) was tested, and the Activity was “inactive”. In the case of `CCCCCCC(CCCCCCCCCCC(=O)OC)O[C@@H]1O[C@H](CO)[C@H](O)[C@H](O)[C@H]1O` (some centres undefined), the Activity is reported as “inactive”. With `CCCCCCC(CCCCCCCCCCC(=O)OC)O[C@@H]1O[C@H](CO)[C@@H](O[C@H]2O[C@H](CO)[C@@H](O)[C@H](O)[C@H]2O)[C@H](O)[C@H]1O` (some centres undefined) the Activity was “inactive”. `CCCCCCC(CCCCCCCCCCC(=O)OC)O[C@H]1O[C@H](CO)[C@@H](O)[C@H](O)[C@@H]1O` (some centres undefined) was tested, and the Activity was “inactive”. `CCCCCCC(CCCCCCCCCCC(=O)OC)O[C@H]1O[C@H](CO)[C@@H](O)[C@H](O)[C@@H]1O[C@H]1O[C@H](CO)[C@@H](O)[C@H](O)[C@@H]1O` (some centres undefined) was tested, and the Activity was “Active”. `CCCCCCC(CCCCCCCCCCC(=O)OC)O[C@H]1O[C@H](CO)[C@H](O)[C@H](O)[C@H]1O` (some centres undefined) was tested, and the Activity was “inactive”. In the case of `CCCCCCC(CCCCCCCCCCC(=O)OC)O[C@@H]1O[C@H](CO)[C@@H](O)[C@H](O)[C@H]1O` (some centres undefined), the Activity is reported as “inactive”. In the case of `CCCCCCC(CCCCCCCCCCC(=O)OC)O[C@@H]1O[C@H](CO[C@H]2O[C@H](CO)[C@H](O)[C@H](O)[C@H]2O)[C@@H](O)[C@H](O)[C@H]1O` (some centres undefined), the Activity is reported as “inactive”. In the case of `CCCCCCC(CCCCCCCCCCC(=O)OC)O[C@@H]1O[C@H](CO)[C@@H](O)[C@H](O)[C@@H]1O` (some centres undefined), the Activity is reported as “inactive”. In the case of `CCCCCCC(CCCCCCCCCCC(=O)OC)O[C@H]1O[C@H](CO)[C@@H](O)[C@H](O)[C@@H]1O[C@@H]1O[C@H](CO)[C@@H](O)[C@H](O)[C@@H]1O` (some centres undefined), the Activity is reported as “Active”. With `CCCCCCC(CCCCCCCCCCC(=O)OC)O[C@H]1O[C@H](CO)[C@@H](O)[C@H](O)[C@H]1O` (some centres undefined) the Activity was “inactive”. For `CCCCCCC(CCCCCCCCCCC(=O)OC)O[C@@H]1O[C@H](CO)[C@@H](O)[C@H](O)[C@@H]1O[C@H]1O[C@H](CO)[C@@H](O)[C@H](O)[C@@H]1O` (some centres undefined), the Activity was “Active”. With `CCCCCCC(CCCCCCCCCCC(=O)OC)O[C@@H]1O[C@H](CO)[C@@H](O[C@@H]2O[C@H](CO)[C@@H](O)[C@H](O)[C@H]2O)[C@H](O)[C@H]1O` (some centres undefined) the Activity was “inactive”. For `CCCCCCC(CCCCCCCCCCC(=O)OC)O[C@@H]1O[C@H](CO)[C@@H](O)[C@H](O)[C@@H]1O[C@@H]1O[C@H](CO)[C@@H](O)[C@H](O)[C@@H]1O` (some centres undefined), the Activity was “Active”.

These molecules were tested against T2, C-type lectin domain family 4 member E (Mus musculus) (UniProt Q9R0Q8) (assay: Agonist activity at mouse mincle coupled with FcRgamma expressed in 2B4-NFAT-GFP reporter cells at 3 nmol/well after 16 hrs by flow cytometric analysis).
T2 sequence (whole entry): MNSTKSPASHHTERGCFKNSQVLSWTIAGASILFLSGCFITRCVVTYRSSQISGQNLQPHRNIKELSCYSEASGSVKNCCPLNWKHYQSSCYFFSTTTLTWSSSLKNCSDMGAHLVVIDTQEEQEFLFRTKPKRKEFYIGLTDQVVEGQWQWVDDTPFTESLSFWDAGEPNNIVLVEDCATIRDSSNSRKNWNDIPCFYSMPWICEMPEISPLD
Type: cell-based
In the case of `CCCCCCC(CCCCCCCCCCC(=O)OC)O[C@@H]1O[C@H](CO[C@H]2O[C@H](CO)[C@@H](O)[C@H](O)[C@H]2O)[C@@H](O)[C@H](O)[C@H]1O` (some centres undefined), the Activity is reported as “inactive”. For `CCCCCCC(CCCCCCCCCCC(=O)OC)O[C@@H]1O[C@H](CO)[C@H](O)[C@H](O)[C@H]1O` (some centres undefined), the Activity was “inactive”. In the case of `CCCCCCC(CCCCCCCCCCC(=O)OC)O[C@@H]1O[C@H](CO)[C@@H](O[C@H]2O[C@H](CO)[C@@H](O)[C@H](O)[C@H]2O)[C@H](O)[C@H]1O` (some centres undefined), the Activity is reported as “inactive”. In the case of `CCCCCCC(CCCCCCCCCCC(=O)OC)O[C@H]1O[C@H](CO)[C@@H](O)[C@H](O)[C@@H]1O` (some centres undefined), the Activity is reported as “inactive”. With `CCCCCCC(CCCCCCCCCCC(=O)OC)O[C@@H]1O[C@H](CO[C@@H]2O[C@H](CO)[C@@H](O)[C@H](O)[C@H]2O)[C@@H](O)[C@H](O)[C@H]1O` (some centres undefined) the Activity was “Active”. `CCCCCCC(CCCCCCCCCCC(=O)OC)O[C@H]1O[C@H](CO)[C@@H](O)[C@H](O)[C@@H]1O[C@H]1O[C@H](CO)[C@@H](O)[C@H](O)[C@@H]1O` (some centres undefined) was tested, and the Activity was “Active”. With `CCCCCCC(CCCCCCCCCCC(=O)OC)O[C@H]1O[C@H](CO)[C@H](O)[C@H](O)[C@H]1O` (some centres undefined) the Activity was “inactive”. In the case of `CCCCCCC(CCCCCCCCCCC(=O)OC)O[C@@H]1O[C@H](CO)[C@@H](O)[C@H](O)[C@H]1O` (some centres undefined), the Activity is reported as “inactive”. In the case of `CCCCCCC(CCCCCCCCCCC(=O)OC)O[C@@H]1O[C@H](CO[C@H]2O[C@H](CO)[C@H](O)[C@H](O)[C@H]2O)[C@@H](O)[C@H](O)[C@H]1O` (some centres undefined), the Activity is reported as “inactive”. With `CCCCCCC(CCCCCCCCCCC(=O)OC)O[C@@H]1O[C@H](CO)[C@@H](O)[C@H](O)[C@@H]1O` (some centres undefined) the Activity was “inactive”. In the case of `CCCCCCC(CCCCCCCCCCC(=O)OC)O[C@H]1O[C@H](CO)[C@@H](O)[C@H](O)[C@@H]1O[C@@H]1O[C@H](CO)[C@@H](O)[C@H](O)[C@@H]1O` (some centres undefined), the Activity is reported as “Active”. In the case of `CCCCCCC(CCCCCCCCCCC(=O)OC)O[C@H]1O[C@H](CO)[C@@H](O)[C@H](O)[C@H]1O` (some centres undefined), the Activity is reported as “inactive”. `CCCCCCC(CCCCCCCCCCC(=O)OC)O[C@@H]1O[C@H](CO)[C@@H](O)[C@H](O)[C@@H]1O[C@H]1O[C@H](CO)[C@@H](O)[C@H](O)[C@@H]1O` (some centres undefined) was tested, and the Activity was “Active”. For `CCCCCCC(CCCCCCCCCCC(=O)OC)O[C@@H]1O[C@H](CO)[C@@H](O[C@@H]2O[C@H](CO)[C@@H](O)[C@H](O)[C@H]2O)[C@H](O)[C@H]1O` (some centres undefined), the Activity was “inactive”. In the case of `CCCCCCC(CCCCCCCCCCC(=O)OC)O[C@@H]1O[C@H](CO)[C@@H](O)[C@H](O)[C@@H]1O[C@@H]1O[C@H](CO)[C@@H](O)[C@H](O)[C@@H]1O` (some centres undefined), the Activity is reported as “Active”.
